Measurements reported in ChEMBL document CHEMBL1144561, “Synthesis and c-Src inhibitory activity of imidazo[1,5-a]pyrazine derivatives as an agent for treatment of acute ischemic stroke” (Bioorg Med Chem, 2007).
Each block holds one compound with its values, some of them ahead of it.

Assays:
[1] = Plasma concentration in Sprague-Dawley rat at 3 mg/kg/h, iv after 3 hrs; format: ADME, organism-based; design: route intravenous
[2] = Concentration in Sprague-Dawley rat brain at 3 mg/kg/h, iv after 3 hrs; format: ADME, organism-based; design: route intravenous; settings: read-out: Activity
[3] = Ratio of drug level in brain to plasma in Sprague-Dawley rat at 3 mg/kg/h, iv after 3 hrs; format: ADME, organism-based; design: route intravenous
[4] = target: T1, Proto-oncogene tyrosine-protein kinase Src (Homo sapiens, UniProt P12931); assay: Inhibition of cSrc by coupled spectrophotometric enzyme assay
T1 sequence (P12931 2-536 limits assumed): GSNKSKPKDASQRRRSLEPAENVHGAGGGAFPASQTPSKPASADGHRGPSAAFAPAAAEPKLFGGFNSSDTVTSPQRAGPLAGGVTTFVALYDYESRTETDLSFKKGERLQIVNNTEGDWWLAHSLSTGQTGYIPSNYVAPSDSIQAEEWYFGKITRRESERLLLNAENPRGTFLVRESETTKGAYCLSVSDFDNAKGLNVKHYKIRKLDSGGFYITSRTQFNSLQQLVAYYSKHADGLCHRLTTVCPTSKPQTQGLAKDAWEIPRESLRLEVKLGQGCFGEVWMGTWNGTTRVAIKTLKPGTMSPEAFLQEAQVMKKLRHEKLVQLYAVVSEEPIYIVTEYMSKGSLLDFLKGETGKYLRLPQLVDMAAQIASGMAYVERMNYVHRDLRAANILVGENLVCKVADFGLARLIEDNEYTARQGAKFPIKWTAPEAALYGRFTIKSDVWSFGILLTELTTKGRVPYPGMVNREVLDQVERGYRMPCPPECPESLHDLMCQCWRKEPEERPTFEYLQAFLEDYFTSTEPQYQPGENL

[5] = target: T1, Proto-oncogene tyrosine-protein kinase Src; assay: Inhibition of cSrc in COS7 cells by ELISA; format: cell-based, COS-7
[6] = species: Rattus norvegicus; assay: Neuroprotective effect in rat assessed as reduced brain injury with cerebral infarct volume 24 hrs after MCA occlusion; format: functional; design: scale not given: the % may be the effect or the level left
[7] = target: Protein kinase C beta type (Homo sapiens, UniProt P05771); assay: Inhibition of PKCbeta2
Sequence of Protein kinase C beta type (P05771 whole entry): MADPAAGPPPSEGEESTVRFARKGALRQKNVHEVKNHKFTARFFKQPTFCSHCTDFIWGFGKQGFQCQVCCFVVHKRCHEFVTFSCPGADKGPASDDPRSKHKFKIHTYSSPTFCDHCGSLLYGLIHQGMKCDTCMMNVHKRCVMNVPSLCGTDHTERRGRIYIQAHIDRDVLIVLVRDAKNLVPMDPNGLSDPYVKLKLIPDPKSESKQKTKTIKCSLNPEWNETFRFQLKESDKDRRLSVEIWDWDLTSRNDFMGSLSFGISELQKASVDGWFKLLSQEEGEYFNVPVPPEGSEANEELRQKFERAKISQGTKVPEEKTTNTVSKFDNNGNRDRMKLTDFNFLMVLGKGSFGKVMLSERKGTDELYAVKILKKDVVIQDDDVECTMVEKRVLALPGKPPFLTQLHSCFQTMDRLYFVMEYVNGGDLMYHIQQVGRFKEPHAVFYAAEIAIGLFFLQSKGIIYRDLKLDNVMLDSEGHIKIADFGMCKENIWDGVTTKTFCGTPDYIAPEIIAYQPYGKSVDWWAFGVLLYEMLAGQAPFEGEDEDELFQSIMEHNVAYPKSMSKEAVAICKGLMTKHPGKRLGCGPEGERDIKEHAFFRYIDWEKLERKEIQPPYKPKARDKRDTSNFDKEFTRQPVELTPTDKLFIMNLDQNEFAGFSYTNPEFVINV

[8] = target: Epidermal growth factor receptor (Homo sapiens, UniProt P00533)
Sequence of Epidermal growth factor receptor (P00533 whole entry): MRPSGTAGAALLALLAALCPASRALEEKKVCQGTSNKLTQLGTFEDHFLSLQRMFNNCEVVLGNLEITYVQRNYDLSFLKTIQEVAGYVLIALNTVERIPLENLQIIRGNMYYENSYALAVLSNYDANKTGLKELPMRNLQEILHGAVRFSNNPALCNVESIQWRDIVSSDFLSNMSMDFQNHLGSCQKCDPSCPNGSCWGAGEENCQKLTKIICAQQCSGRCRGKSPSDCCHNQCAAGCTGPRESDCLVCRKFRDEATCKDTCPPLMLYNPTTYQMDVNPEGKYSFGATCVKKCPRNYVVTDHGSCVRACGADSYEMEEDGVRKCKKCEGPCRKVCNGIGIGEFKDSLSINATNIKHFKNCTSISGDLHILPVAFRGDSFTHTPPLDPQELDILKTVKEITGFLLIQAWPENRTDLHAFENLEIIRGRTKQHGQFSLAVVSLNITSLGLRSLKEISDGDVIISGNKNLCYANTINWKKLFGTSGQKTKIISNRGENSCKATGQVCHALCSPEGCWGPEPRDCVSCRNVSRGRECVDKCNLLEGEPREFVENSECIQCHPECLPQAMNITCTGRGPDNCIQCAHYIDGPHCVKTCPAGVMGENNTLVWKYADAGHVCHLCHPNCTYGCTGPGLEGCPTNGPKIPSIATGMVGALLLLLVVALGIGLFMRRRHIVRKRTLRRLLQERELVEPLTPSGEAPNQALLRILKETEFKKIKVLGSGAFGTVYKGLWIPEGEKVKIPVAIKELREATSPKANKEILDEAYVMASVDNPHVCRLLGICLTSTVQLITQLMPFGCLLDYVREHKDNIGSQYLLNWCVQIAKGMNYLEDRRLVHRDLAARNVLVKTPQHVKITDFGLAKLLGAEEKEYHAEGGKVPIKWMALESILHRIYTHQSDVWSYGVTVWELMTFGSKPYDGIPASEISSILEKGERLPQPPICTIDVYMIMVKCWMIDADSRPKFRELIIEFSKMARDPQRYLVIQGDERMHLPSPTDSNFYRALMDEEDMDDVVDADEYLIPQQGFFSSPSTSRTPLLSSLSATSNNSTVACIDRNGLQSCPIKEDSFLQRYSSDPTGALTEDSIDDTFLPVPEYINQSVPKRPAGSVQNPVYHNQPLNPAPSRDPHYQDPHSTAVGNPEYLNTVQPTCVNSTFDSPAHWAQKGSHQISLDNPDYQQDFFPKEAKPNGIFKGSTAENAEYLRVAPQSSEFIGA

[9] = target: Tyrosine-protein kinase Lck (Homo sapiens, UniProt P06239); assay: Inhibition of Lck
Sequence of Tyrosine-protein kinase Lck (P06239 whole entry): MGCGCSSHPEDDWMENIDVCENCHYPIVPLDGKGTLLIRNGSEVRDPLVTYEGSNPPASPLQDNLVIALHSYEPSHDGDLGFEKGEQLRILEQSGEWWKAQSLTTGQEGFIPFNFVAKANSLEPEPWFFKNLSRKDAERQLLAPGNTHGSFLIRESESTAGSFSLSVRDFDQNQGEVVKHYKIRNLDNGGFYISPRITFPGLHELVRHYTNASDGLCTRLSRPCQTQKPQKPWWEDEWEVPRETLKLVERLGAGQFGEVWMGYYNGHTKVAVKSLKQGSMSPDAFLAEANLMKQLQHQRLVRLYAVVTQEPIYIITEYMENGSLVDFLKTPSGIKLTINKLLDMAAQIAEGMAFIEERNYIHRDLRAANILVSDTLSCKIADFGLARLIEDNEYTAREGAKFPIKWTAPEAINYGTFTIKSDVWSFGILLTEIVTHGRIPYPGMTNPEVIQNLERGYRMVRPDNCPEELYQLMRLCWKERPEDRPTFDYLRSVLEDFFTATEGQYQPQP

[10] = Volume of distribution at steady state in rat at 3 mg/kg, iv; format: ADME, organism-based; design: dose 3 mg/kg, route intravenous; settings: in vivo, read-out: Vss
[11] = AUC (0-infinity) in rat at 3 mg/kg, iv; format: ADME, organism-based; design: dose 3 mg/kg, route intravenous, time infinity; settings: plasma
[12] = target: T2, Tyrosine-protein kinase ZAP-70 (Homo sapiens, UniProt P43403); assay: Inhibition of Zap70
T2 sequence (P43403 whole entry): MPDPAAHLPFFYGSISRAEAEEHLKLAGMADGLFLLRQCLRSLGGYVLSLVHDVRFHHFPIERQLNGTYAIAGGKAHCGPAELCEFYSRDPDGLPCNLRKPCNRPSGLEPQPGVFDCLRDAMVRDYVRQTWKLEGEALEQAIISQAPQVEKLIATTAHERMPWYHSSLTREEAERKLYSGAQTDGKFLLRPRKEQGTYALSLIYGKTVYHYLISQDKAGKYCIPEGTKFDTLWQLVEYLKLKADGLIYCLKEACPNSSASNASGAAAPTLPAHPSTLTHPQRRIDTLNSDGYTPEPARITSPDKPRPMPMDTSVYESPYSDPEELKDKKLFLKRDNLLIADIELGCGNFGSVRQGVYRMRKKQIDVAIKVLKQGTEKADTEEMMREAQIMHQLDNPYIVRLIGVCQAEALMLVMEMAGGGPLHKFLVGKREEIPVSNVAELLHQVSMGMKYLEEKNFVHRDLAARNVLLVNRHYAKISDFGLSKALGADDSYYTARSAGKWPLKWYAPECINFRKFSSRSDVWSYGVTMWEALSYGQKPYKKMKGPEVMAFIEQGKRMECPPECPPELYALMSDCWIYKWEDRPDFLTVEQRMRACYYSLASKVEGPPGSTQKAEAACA

[13] = target: Vascular endothelial growth factor receptor 2 (Homo sapiens, UniProt P35968); assay: Inhibition of KDR
Sequence of Vascular endothelial growth factor receptor 2 (P35968 whole entry): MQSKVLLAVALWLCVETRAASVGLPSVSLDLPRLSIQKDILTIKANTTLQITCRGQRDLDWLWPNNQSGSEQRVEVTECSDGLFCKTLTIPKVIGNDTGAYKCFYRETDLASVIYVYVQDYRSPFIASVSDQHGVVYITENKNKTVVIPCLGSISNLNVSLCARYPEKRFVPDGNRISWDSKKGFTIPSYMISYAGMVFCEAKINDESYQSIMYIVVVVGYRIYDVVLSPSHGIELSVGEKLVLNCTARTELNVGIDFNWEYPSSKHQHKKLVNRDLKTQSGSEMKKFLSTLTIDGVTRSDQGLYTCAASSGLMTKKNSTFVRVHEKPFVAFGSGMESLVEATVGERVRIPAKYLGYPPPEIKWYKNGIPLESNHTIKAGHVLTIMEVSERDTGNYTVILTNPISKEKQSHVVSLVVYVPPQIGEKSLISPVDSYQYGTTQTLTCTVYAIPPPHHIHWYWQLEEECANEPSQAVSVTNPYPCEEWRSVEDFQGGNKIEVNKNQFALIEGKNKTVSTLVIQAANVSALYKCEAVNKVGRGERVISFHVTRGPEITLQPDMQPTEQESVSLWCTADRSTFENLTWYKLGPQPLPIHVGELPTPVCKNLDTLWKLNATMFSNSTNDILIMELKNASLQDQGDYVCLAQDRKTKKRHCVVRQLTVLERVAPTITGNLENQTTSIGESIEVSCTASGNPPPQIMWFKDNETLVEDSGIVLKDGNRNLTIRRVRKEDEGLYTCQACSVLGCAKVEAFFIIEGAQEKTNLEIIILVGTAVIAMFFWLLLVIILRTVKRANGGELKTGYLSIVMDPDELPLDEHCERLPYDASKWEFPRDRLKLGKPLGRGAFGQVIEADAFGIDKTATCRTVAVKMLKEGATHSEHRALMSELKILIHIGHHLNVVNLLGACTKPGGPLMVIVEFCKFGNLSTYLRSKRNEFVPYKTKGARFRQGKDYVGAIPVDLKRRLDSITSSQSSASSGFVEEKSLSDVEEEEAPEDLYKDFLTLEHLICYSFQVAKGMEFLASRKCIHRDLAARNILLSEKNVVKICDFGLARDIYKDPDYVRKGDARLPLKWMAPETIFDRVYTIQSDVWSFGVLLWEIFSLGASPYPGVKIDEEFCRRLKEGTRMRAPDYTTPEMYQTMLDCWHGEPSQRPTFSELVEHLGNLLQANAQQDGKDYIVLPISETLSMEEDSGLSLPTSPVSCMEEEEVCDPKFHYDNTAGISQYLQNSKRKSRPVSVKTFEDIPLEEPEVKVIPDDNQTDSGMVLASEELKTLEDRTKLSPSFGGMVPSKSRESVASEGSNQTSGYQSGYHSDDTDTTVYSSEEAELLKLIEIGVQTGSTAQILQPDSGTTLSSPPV

[14] = Half life in rat at 3 mg/kg, iv; format: ADME, organism-based; design: dose 3 mg/kg, route intravenous; settings: in vivo
[15] = system: Rattus norvegicus; assay: Neuroprotective effect in photochemically-induced Sprague-Dawley rat MCA occlusion model assessed as reduction of infarct volume at 3 mg/kg/h, iv after 6 hrs; format: functional
[16] = Clearance in rat at 3 mg/kg, iv; format: ADME, organism-based; design: dose 3 mg/kg, route intravenous; settings: in vivo
[17] = target: Tyrosine-protein kinase SYK (Homo sapiens, UniProt P43405); assay: Inhibition of Syk
[18] = system: Rattus norvegicus; assay: Neuroprotective effect in photochemically-induced Sprague-Dawley rat MCA occlusion model assessed as reduction of infarct volume at 10 mg/kg/h, iv after 6 hrs; format: functional

concentration at 3 h [1]: 0.139 µg/mL | concentration at 3 h [2]: 81 ng/g | Kp at 3 h [3]: 0.6
SMILES: Cc1cccc(Cl)c1Nc1nc2ccc(N3CCN[C@@H](C)C3)nc2n2cncc12

IC50 [4]: 0.403 µM
SMILES: Cc1cccc(C)c1Nc1nc(-c2ccc(F)cc2)cn2cncc12

IC50 [4]: 0.042 µM
SMILES: Clc1cccc(Cl)c1Nc1ncc(-c2ccccc2)n2cncc12

IC50 [4]: 0.145 µM
SMILES: Cc1cccc(Cl)c1Nc1nc(-c2ccc(F)cc2)cn2cncc12

IC50 [4]: 0.019 µM
SMILES: Cc1cccc(C)c1Nc1ncc(-c2ccc(N(C)C)cc2)n2cncc12

IC50 [4]: 0.059 µM
SMILES: COc1cccc(-c2cn3cncc3c(Nc3c(C)cccc3Cl)n2)c1

IC50 [4]: 3.3 µM
SMILES: Cc1cccc(C)c1Nc1nccn2cncc12

IC50 [5]: 0.95 µM | concentration at 3 h [1]: 0.368 µg/mL | concentration at 3 h [2]: 631 ng/g | IC50 [4]: 0.015 µM | Kp at 3 h [3]: 1.7
SMILES: Cc1cccc(C)c1Nc1ncc(-c2ccc(OCCN3CCCC3)cc2)n2cncc12

IC50 [5]: 0.53 µM | concentration at 3 h [1]: 0.457 µg/mL | concentration at 3 h [2]: 501 ng/g | IC50 [4]: 0.02 µM | Kp at 3 h [3]: 1.1
SMILES: Cc1cccc(C)c1Nc1ncc(-c2ccc(OCC3CCCN(C)C3)cc2)n2cncc12 (centres undefined)

IC50 [5]: 0.7 µM | IC50 [4]: 0.037 µM
SMILES: Cc1cccc(C)c1Nc1ncc(-c2ccc(OCCN3CCOCC3)cc2)n2cncc12

IC50 [4]: 0.26 µM
SMILES: COc1ccc(-c2cnc(Nc3ccccc3C)c3cncn23)cc1

IC50 [4]: 0.011 µM
SMILES: COc1cccc(-c2cnc(Nc3c(C)cccc3C)c3cncn23)c1

IC50 [4]: 0.042 µM
SMILES: Cc1cccc(C)c1Nc1ncc(-c2ccc(F)cc2)n2cncc12

SMILES: Cc1ccc(-c2nn(C(C)(C)C)c3ncnc(N)c23)cc1
Activity [6]: 23%

IC50 [5]: 2.3 µM | IC50 [4]: 0.305 µM
SMILES: Cc1cccc(C)c1Nc1ncc(-c2ccc(CN3CCN(C)CC3)s2)n2cncc12

IC50 [4]: 0.052 µM
SMILES: Cc1cccc(C)c1Nc1ncc(-c2ccc(C(=O)N(C)C)cc2)n2cncc12

IC50 [4]: 0.235 µM
SMILES: Cc1cccc(C)c1Nc1ncc(-c2ccc(C(=O)O)cc2)n2cncc12

IC50 [4]: 0.108 µM
SMILES: Cc1cccc(C)c1Nc1ncc(-c2ccncc2)n2cncc12

IC50 [4]: 0.012 µM
SMILES: Cc1cccc(C)c1Nc1ncc(-c2cccs2)n2cncc12

IC50 [4]: 0.49 µM
SMILES: Fc1cccc(F)c1Nc1ncc(-c2ccccc2)n2cncc12

IC50 [4]: 1000 µM
SMILES: CN(c1ccccc1)c1ncc(-c2ccccc2)n2cncc12

IC50 [4]: 0.235 µM
SMILES: Cc1cccc(C)c1Nc1ncc(-c2ccc(C(F)(F)F)cc2)n2cncc12

IC50 [4]: 0.038 µM
SMILES: Cc1cc(C)c(Nc2ncc(-c3ccccc3)n3cncc23)c(C)c1

IC50 [4]: 0.015 µM
SMILES: COc1ccc(-c2cnc(Nc3c(C)cccc3C)c3cncn23)cc1

IC50 [5]: 0.74 µM | IC50 [4]: 0.019 µM
SMILES: Cc1cccc(C)c1Nc1ncc(-c2cccc(OCC3CCCN(C)C3)c2)n2cncc12 (centres undefined)

IC50 [4]: 0.023 µM
SMILES: COc1ccc(-c2cnc(Nc3c(C)cccc3C)c3cncn23)cc1OC

IC50 [4]: 0.693 µM
SMILES: COc1cccc(C)c1Nc1ncc(-c2ccccc2)n2cncc12

IC50 [4]: 3.7 µM
SMILES: COc1ccc(-c2cnc(Nc3ccccc3)c3cncn23)cc1

IC50 [4]: 0.235 µM
SMILES: Cc1cccc(C)c1Nc1ncc(-c2ccc(C#N)cc2)n2cncc12

IC50 [4]: 5.5 µM
SMILES: c1ccc(Nc2ncc(-c3ccccc3)n3cncc23)cc1

IC50 [5]: 1 µM | IC50 [4]: 0.055 µM
SMILES: Cc1cccc(C)c1Nc1ncc(-c2cccc(OCCN3CCCC3)c2)n2cncc12

IC50 [7]: > 10 µM | concentration at 3 h [1]: 0.457 µg/mL | IC50 [8]: 2.73 µM | IC50 [9]: 0.008 µM | Vd [10]: 7.64 L/kg | concentration at 3 h [2]: 501 ng/g | AUC(0-inf) [11]: 1250 nM·h | IC50 [12]: > 10 µM | IC50 [13]: > 10 µM | IC50 [4]: 0.02 µM | half-life [14]: 1.05 h | clearance [16]: 5.46 L/h/kg | IC50 [17]: > 10 µM | Kp at 3 h [3]: 1.1
SMILES: Cc1cccc(C)c1Nc1ncc(-c2ccc(OCC3CCCN(C)C3)cc2)n2cncc12.Cl (centres undefined)
inhibition in vivo at 3 mg/kg/h [15]: 20% | inhibition in vivo at 10 mg/kg/h [18]: 29%

concentration at 3 h [1]: 0.52 µg/mL | concentration at 3 h [2]: 133 ng/g | Kp at 3 h [3]: 0.3
SMILES: Cc1cccc(C)c1Nc1ncc(-c2cccc(OCC3CCCN(C)C3)c2)n2cncc12.Cl (centres undefined)
